Measured values as given in US20160176859A1, “High-Throughput Assay for Identifying Small Molecules that Modulate AMP-activated Protein Kinase (AMPK)” (North Carolina Central University, priority 2013, published 2016).
“Also recorded” adds a separate entry of the source. Where two headings read alike, the source gives them in different places.

How the values were obtained:
purified p-AMPK = molecular target: T1, purified p-AMPK (Rattus norvegicus, UniProt P54645+P80385); test: Kinase assay with purified p-AMPK and GST-ACC peptide; format: biochemical
T1 construct: Full-length AMPK intended for use in phosphatase and kinase assays was purified, mixed with GST-CaMKKβ; made in house; host or cells: Rosetta cells (E. coli); phosphorylated in vitro with GST-CaMKKβ, which was then removed on glutathione resin
Procedure: Kinase assays. Assay conditions were adapted from published methods (17). The final assay buffer was comprised of 40 mM Hepes (pH 7.4) 5 mM MgCl2, 200 μM ATP, 75 mM NaCl, 0.01% Triton X-100, 1 mM DTT, and 0.45% DMSO (vehicle). Because some analogs had poor solubility at high concentrations, all analogs and controls were diluted in assay buffer and centrifuged (1 min, 5000 rpm, 4° C.) to remove insoluble matter. GST-ACC peptide and p-AMPK were thawed, diluted in assay buffer, and then added to the supernatant at final concentrations of 900 and 0.1 ng/μL, respectively. Kinase assays were assembled on ice; reactions were allowed to proceed for 30 minutes at room temperature. Reactions were stopped by the addition of loading buffer and 48 mM DTT followed promptly by freezing at −20° C.
(§1) Western analyses. Protein samples were boiled for 15 minutes in loading buffer and DTT prior to SDS-PAGE. Blots for protein-based assays were sequentially incubated with the following: 5% BSA in 1× TBS (1 hr, 22° C.), 1:1000 rabbit anti-human p-AMPK-α antibody or p-ACC antibody (2 hr, 22° C.), and 1:10,000 donkey anti-rabbit secondary antibody (1 hr, 22° C.). Blots for phosphatase assays were probed a second time using 1:100 mouse anti-human total AMPK antibody (overnight, 4° C.; from UNC Antibody Core Facility) followed by 1:10,000 donkey anti-mouse secondary antibody (1 hr, 22° C.). Blots for clarified cell lysates were sequentially probed for p-AMPK (1:500 dilution, overnight at 4° C. or 4 hours at 22° C.), total ACC (1:1000 dilution, overnight at 4° C. or 4 hours at 22° C.), and tubulin (1:10,000 dilution, 1 hr, 22° C.); a parallel set of blots were probed for p-ACC (1:500 dilution, overnight at 4° C. or 4 hours at 22° C.), total AMPK (1:1000 dilution, overnight at 4° C. or 4 hours at 22° C.), and tubulin (1:10,000 dilution, 1 hr, 22° C.). Because phosphorylated and total protein were imaged on separate membranes, the signals were normalized to the internal tubulin signal prior to calculating the ratio of phosphorylated to total protein. Scanning and imaging were completed according to published methods.

[1] = molecular target: T2, full-length AMPK (rat His-α1, β1, γ1) (Rattus norvegicus, UniProt P54645+P80385); test: MANT-ADP fluorescence displacement (binding) assay, full-length AMPK; conditions: for displacement of MANT-ADP: full-length AMPK compared with regulatory fragment: compared in parallel; for IC50: full-length AMPK
T2 construct: Tricistronic vectors encoding full-length AMPK (rat His-α1, β1, γ1); made in house; host or cells: Rosetta cells (E. coli), tricistronic vector, gift of Dr. Uwe Schlattner
Procedure: (§2) Except where otherwise noted, assays were performed with the following conditions: 0.5 μM full-length AMPK (130 kDa) or 0.5 μM regulatory fragment (66.7 kDa), 0.1 μM MANT-ADP, 10 mM Tris-HCl (pH 8), 0.45% DMSO (vehicle and negative control), and 5 μM ADP (positive control). Automated assays were assembled in two steps. First, a NanoQuot (BioTek) was used to dispense 11 μL of master mix (protein, MANT-ADP, and Tris-HCl) per well in black, low volume 384-well plates (Corning-3676). Next, a Biomek NX workstation (Beckman-Coulter, Brea, Calif.) equipped with pintools (VP Scientific, San Diego Calif.) was used to transfer 50 nL of controls (columns 1, 2, 23, and 24) and small molecules (4.5 μM final). Controls and library molecules were transferred from Axygen 384-well rigid PCR plates (Cat no. 321-67-051) at 221× concentration for single-concentration screening. Plates were shaken for 10 minutes prior to reading.
(§3) Fluorescence emission spectra of MANT-ADP were collected using a PerkinElmer EnSpire plate reader with an excitation wavelength of 360 nm. Background fluorescence from protein was subtracted from the raw data prior to plotting MANT-ADP's fluorescence in the presence of protein. Fluorescence detection for assay development and screening was performed on either a BMG Pherastar Plus (360/10 excitation and 460/10 emission filters) or a PerkinElmer EnVision (355/40 excitation and 460/25 emission filters), depending on equipment availability. Relative fluorescence units (RFUs) were recorded at room temperature.
(§4) ScreenAble (ScreenAble Solutions, Chapel Hill, N.C.) high-throughput screening software was utilized for merging screening data and chemical structure, for statistical design of experiments, and hit selection. GraphPad Prism was used for non-linear regression analysis of dose response data.
(§5) Binding assays. Except where otherwise noted, assay assembly and data analysis were completed according to published methods. Binding assays were manually assembled, with the exception of the similarity screen. Automated assembly of the similarity screen was completed according to published methods. Analogs were cherry-picked from a 10 mM Asinex small molecule library and a 0.5 mM kinase focused library, which has been described previously (4). Molecules were screened at a final concentration of 45 and 2.3 μM, respectively.

HEK cells = test: Cell-intact assay, attachment of HEK cells to tissue culture plates; format: cell-based, human; conditions: absence of serum
Procedure: (§6) Cell-intact assays. HEK cells were grown in DMEM with 10% FBS and 1% penicillin/streptomycin at 37° C. A subset of plates was serum-starved for 5 hours on the day of the experiment. After 5 hours of serum-starvation, cells were treated with either controls (0.2% DMSO, A-769662, or Compound C) or small molecules in the absence of serum for an additional hour prior to lysis. Another subset of plates was serum-starved for 6 hours and then treated with either controls or small molecules for 1 hour in the presence of 10% FBS. A time course of both AMPK and ACC phosphorylation in HEK cells during serum starvation has already been published (Pirkmajer S, Chibalin A V. Serum starvation: caveat emptor. American journal of physiology Cell physiology. 2011 August; 301(2):C272-9. PubMed PMID: 2161361).

[2] = molecular target: T3, p-AMPK in the presence of PP2C (Rattus norvegicus, UniProt P54645+P80385); test: Phosphatase assay: protection of p-AMPK from dephosphorylation by PP2C; format: biochemical; conditions: p-AMPK/total AMPK ratio normalized to no-PP2C control
T3 construct: Full-length AMPK intended for use in phosphatase and kinase assays was purified, mixed with GST-CaMKKβ; made in house; host or cells: Rosetta cells (E. coli); phosphorylated in vitro with GST-CaMKKβ, which was then removed
Procedure: Phosphatase assays. Assay conditions were adapted from published methods (18). In short, the final assay buffer was compromised of 50 mM Tris (pH 7.5), […], 0.01% Triton X-100, 1 mM DTT, and 0.45% DMSO (vehicle). Because some analogs had poor solubility at high concentrations, all analogs and controls were diluted in assay buffer and centrifuged (1 min, 5000 rpm, 4° C.) to remove insoluble matter. PP2C and p-AMPK were added to the supernatant at final concentrations of 2 and 3 ng/μL, respectively. Phosphatase reactions were allowed to proceed for 30 minutes at 37° C. Reactions were stopped by the addition of loading buffer and 48 mM DTT followed promptly by freezing at −20° C.
Western analyses. Protein samples were boiled for 15 minutes in loading buffer and DTT prior to SDS-PAGE. Blots for protein-based assays were sequentially incubated with the following: 5% BSA in 1× TBS (1 hr, 22° C.), 1:1000 rabbit anti-human p-AMPK-α antibody or p-ACC antibody (2 hr, 22° C.), and 1:10,000 donkey anti-rabbit secondary antibody (1 hr, 22° C.). Blots for phosphatase assays were probed a second time using 1:100 mouse anti-human total AMPK antibody (overnight, 4° C.; from UNC Antibody Core Facility) followed by 1:10,000 donkey anti-mouse secondary antibody (1 hr, 22° C.). […]

[3] = test system: p-ACC levels in HEK cells; test: Cell-intact assay, p-ACC levels in HEK cells; format: cell-based, human
Procedure: as §6
(§7) After incubating in the presence of drugs for one hour, cells were washed three times with ice-cold PBS and lysed according to published methods (Kazgan N, Williams T, Forsberg L J, Brenman J E. Identification of a nuclear export signal in the catalytic subunit of AMP-activated protein kinase. Molecular biology of the cell. 2010 Oct. 1; 21(19):3433-42. PubMed PMID: 20685962. Pubmed Central PMCID: 2947478). Lysates were centrifuged at 16,000 g (10 minutes, 4° C.). Clarified supernatant (30 μL) was then transferred to 10 μL 4X loading buffer and 2 μL 1 M DTT. Samples were immediately frozen at −20° C. The concentration of protein in diluted clarified supernatant was calculated using a DC protein assay kit (BioRad) prior to western analyses.
as §1

[4] = test system: p-AMPK levels in HEK cells; test: Cell-intact assay, p-AMPK levels in HEK cells; format: cell-based, human; conditions: serum starvation followed by 10% serum; 1 hour
Procedure: as §6
as §7, with “Lysates were centrifuged at 16,000 g (10 minutes, 4° C.). Clarified supernatant (30 μL) was then transferred to 10 μL 4X loading buffer and 2 μL 1 M DTT. Samples were immediately frozen at −20° C.” left out, “analyses. […]” for “analyses.”

[5] = molecular target: T4, AMPK regulatory fragment (rat His-α1, 396-548; human β2, 187-272; rat γ1) (Rattus norvegicus, UniProt P80385); test: MANT-ADP fluorescence displacement (binding) assay, AMPK regulatory fragment; conditions: MANT-ADP with no protein = 100% inhibition, read-out: IC50, inhibition of the increase in MANT-ADP fluorescence
T4 construct: rat His-α1, 396-548; human β2, 187-272; rat γ1; made in house; host or cells: Rosetta cells (E. coli), tricistronic vector, gift of Dr. Steve Gamblin
Procedure: as §2, §3, §4, §5

full-length His-AMPK = molecular target: T5, full-length His-AMPK (Rattus norvegicus, UniProt P54645+P80385); test: Isothermal titration calorimetry; format: binding; conditions: both sites; 5 mM phosphate buffer (pH 7.4), room temperature; n=1; read-out: calculated dissociation constants
T5 construct: Tricistronic vectors encoding full-length AMPK (rat His-α1, β1, γ1); made in house; host or cells: Rosetta cells (E. coli), tricistronic vector, gift of Dr. Uwe Schlattner
Procedure: ITC. A MicroCal Auto-iTC200 system (GE Healthcare, Pittsburgh, Pa.) was used to study binding interactions between ADP and full-length His-AMPK at room temperature in the presence of 5 mM phosphate buffer (pH 7.4). To decrease the ionic strength of the buffer, full-length AMPK frozen in 50 mM phosphate buffer was thawed, diluted in 5 mM phosphate buffer (pH 7.4) and then concentrated via centrifugal filtration. At the start of the ITC experiment, the concentrations of His-AMPK (in the sample cell) and ADP (in the syringe) were 70 μM and 1.4 mM, respectively.

T1 sequence (P54645 with tags, fused parts or gaps limits assumed): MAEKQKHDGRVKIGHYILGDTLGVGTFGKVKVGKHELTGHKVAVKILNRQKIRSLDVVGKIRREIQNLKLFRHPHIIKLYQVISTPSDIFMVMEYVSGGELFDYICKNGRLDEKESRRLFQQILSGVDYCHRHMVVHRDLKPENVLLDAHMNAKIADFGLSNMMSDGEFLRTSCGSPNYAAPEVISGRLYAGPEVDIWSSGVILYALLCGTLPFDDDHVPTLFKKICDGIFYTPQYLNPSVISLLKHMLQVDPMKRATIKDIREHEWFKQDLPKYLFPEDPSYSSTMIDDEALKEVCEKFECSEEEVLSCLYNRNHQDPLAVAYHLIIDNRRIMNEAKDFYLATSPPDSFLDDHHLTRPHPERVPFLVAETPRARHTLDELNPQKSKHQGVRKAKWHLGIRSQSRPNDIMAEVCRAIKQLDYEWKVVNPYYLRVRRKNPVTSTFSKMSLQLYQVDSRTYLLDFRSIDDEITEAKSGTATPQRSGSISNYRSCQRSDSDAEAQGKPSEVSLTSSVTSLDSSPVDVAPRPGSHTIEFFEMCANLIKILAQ
T1 sequence (P80386 whole entry partner): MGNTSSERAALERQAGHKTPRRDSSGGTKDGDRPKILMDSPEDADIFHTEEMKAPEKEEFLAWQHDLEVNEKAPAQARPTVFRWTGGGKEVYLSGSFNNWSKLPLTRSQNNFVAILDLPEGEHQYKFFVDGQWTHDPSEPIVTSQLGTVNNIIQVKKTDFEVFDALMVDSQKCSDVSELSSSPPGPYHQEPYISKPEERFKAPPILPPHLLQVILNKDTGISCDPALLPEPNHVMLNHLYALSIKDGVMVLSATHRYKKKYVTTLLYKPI
T1 sequence (P80385 whole entry): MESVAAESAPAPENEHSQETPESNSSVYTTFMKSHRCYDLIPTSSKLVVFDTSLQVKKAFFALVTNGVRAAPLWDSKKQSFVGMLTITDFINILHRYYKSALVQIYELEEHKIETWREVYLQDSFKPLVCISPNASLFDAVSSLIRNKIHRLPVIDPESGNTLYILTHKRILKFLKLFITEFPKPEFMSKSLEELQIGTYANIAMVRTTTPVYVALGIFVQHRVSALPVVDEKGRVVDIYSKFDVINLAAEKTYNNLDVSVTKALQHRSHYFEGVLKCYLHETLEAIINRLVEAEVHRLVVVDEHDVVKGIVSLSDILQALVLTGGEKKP
T2 sequence (P54645 with tags, fused parts or gaps limits assumed): as the sequence (P54645 with tags, fused parts or gaps limits assumed) above
T2 sequence (P80386 whole entry partner, the tested form may be a part): as the sequence (P80386 whole entry partner) above
T2 sequence (P80385 whole entry, the tested form may be a part): as the sequence (P80385 whole entry) above
T3 sequence (P54645 with tags, fused parts or gaps limits assumed): as the sequence (P54645 with tags, fused parts or gaps limits assumed) above
T3 sequence (P80386 whole entry partner): as the sequence (P80386 whole entry partner) above
T3 sequence (P80385 whole entry): as the sequence (P80385 whole entry) above
T5 sequence (P54645 with tags, fused parts or gaps limits assumed): as the sequence (P54645 with tags, fused parts or gaps limits assumed) above
T5 sequence (P80386 whole entry partner): as the sequence (P80386 whole entry partner) above
T5 sequence (P80385 whole entry): as the sequence (P80385 whole entry) above
T4 sequence (P54645 407-559 partner limits assumed): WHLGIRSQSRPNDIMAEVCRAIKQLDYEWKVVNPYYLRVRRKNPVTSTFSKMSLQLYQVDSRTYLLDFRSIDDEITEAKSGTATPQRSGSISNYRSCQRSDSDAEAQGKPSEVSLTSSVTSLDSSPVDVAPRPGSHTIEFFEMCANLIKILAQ
T4 sequence (O43741 187-272 partner limits assumed): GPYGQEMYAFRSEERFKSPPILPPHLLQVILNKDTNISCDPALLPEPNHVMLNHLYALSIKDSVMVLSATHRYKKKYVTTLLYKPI
T4 sequence (P80385 whole entry, the tested form may be a part): as the sequence (P80385 whole entry) above

dose response when repeated with an additional concentration at 1 μM (purified p-AMPK; high p-GST-ACC peptide at both 1 and 40 μM, data not shown) | substrate phosphorylation at higher doses (purified p-AMPK; higher doses) | inhibition of the protein-bound signal of MANT-ADP in the triplicate similarity screen ([1]; final concentration 45 μM) | IC50 ([1]; Example 4, read-out: binding IC50) [nM] | detachment of cells from tissue culture plates (HEK cells) | protection of p-AMPK from dephosphorylation [2] | IC50 ([1]; MANT-ADP with no protein = 100% inhibition, read-out: IC50, inhibition of the increase in MANT-ADP fluorescence) [nM] | IC50 [5] [nM] | Kd (full-length His-AMPK) [nM] | Structure (SMILES) | activity of purified p-AMPK (phosphorylation of GST-ACC peptide), dose response (purified p-AMPK; compared to DMSO control) | displacement of MANT-ADP: full-length AMPK compared with regulatory fragment [1] | p-ACC levels, serum-treated HEK cells ([3]; 10% serum) | p-ACC levels (substrate phosphorylation), pre-conditioned HEK cells ([3]; serum starvation followed by 10% serum, 1 hour) | p-AMPK levels, pre-conditioned HEK cells [4]
complete U-shaped dose response | permitted substrate phosphorylation | reproducibly inhibited | < 5000 | caused many cells to detach | protected p-AMPK from dephosphorylation | – | – | – | O=C1/C(=C/c2ccc(-c3ccc(Cl)c(Cl)c3)o2)SC(=S)N1CCS(=O)(=O)O [BAS 02250954, 2-[(5Z)-5-{[5-(3,4-Dichlorophenyl)furan-2-yl]methylidene}-4-oxo-2-sulfanylidene-1,3-thiazolidin-3-yl]ethane-1-sulfonic acid] | significantly inhibited substrate phosphorylation at low doses; also recorded: inhibits substrate phosphorylation | greater concentration | decreased substrate phosphorylation | no change in substrate phosphorylation; also recorded: does not increase | high levels of p-AMPK
– | – | – | – | – | – | 300 | 400 | 13000 | Nc1ncnc2c1ncn2[C@@H]1O[C@H](COP(=O)(O)OP(=O)(O)O)[C@@H](O)[C@H]1O [ADP, adenosine diphosphate, reference compound] | – | same binding IC50; also recorded: same concentration | – | – | –
